Assay results published in ChEMBL document CHEMBL1201862, “PubChem BioAssay data set” (2004).
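Exposure lasted 48 hours, with cells grown in 96-well plates and compounds tested at five concentrations. GI50 = concentration required for 50% inhibition of growth.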 The source made the active and inactive calls. Cut-off read from the data, not from the text of the source: active = GI50 up to about 1.1 µM and inactive = higher.

Key:
Experiment in all cases: NCI tumour cell line growth inhibition, 48 h
SF-295 = system: SF-295
SNB-75 = system: SNB-75
SF-268 = system: SF-268
DLD-1 = system: DLD-1
SW-620 = system: SW-620
IGROV-1 = system: IGROV-1
NCI-H23 = system: NCI-H23
NCI-H460 = system: NCI-H460
KM-20L2 = system: KM-20L2
A549 = system: A549
OVCAR-5 = system: OVCAR-5
HCC 2998 = system: HCC 2998
OVCAR-8 = system: OVCAR-8
KM12 = system: KM12
786-0 = system: 786-0
CAKI-1 = system: CAKI-1
SNB-78 = system: SNB-78
HL-60 = system: HL-60
NCI-H522 = system: NCI-H522
SN12C = system: SN12C
UACC-257 = system: UACC-257
HOP-62 = system: HOP-62
HCT-116 = system: HCT-116
LXFL 529 = system: LXFL 529
HT-29 = system: HT-29
Malme-3M = system: Malme-3M
SR = system: SR
XF498 = system: XF498
EKVX = system: EKVX
HOP-92 = system: HOP-92
SF-539 = system: SF-539
DMS-273 = system: DMS-273
MOLT-4 = system: MOLT-4
SK-MEL-28 = system: SK-MEL-28
UO-31 = system: UO-31
RXF 393 = system: RXF 393
DMS-114 = system: DMS-114
M14 = system: M14
M19-MEL = system: M19-MEL
ACHN = system: ACHN
OVCAR-3 = system: OVCAR-3
SNB-19 = system: SNB-19
SK-MEL-2 = system: SK-MEL-2
RPMI-8226 = system: RPMI-8226
SK-MEL-5 = system: SK-MEL-5
U-251 = system: U-251
CCRF-CEM = system: CCRF-CEM
HCT-15 = system: HCT-15
K562 = system: K562
SK-OV-3 = system: SK-OV-3
NCI-H226 = system: NCI-H226
COLO 205 = system: COLO 205
RXF 631 = system: RXF 631
UACC-62 = system: UACC-62
OVCAR-4 = system: OVCAR-4
A498 = system: A498
LOX IMVI = system: LOX IMVI
TK-10 = system: TK-10
HOP-18 = system: HOP-18

COc1ccc(C(=O)C(C(=O)CC(=O)Nc2cccc(C(F)(F)F)c2)c2ccc(OC)cc2)cc1 (stereo not drawn)
GI50 (SF-295): > 100 µM (inactive) | GI50 (SNB-75): 30.8 µM (inactive) | GI50 (SF-268): > 100 µM (inactive) | GI50 (DLD-1): > 100 µM (inactive) | GI50 (SW-620): > 100 µM (inactive) | GI50 (IGROV-1): > 100 µM (inactive) | GI50 (NCI-H23): > 100 µM (inactive) | GI50 (NCI-H460): > 100 µM (inactive) | GI50 (KM-20L2): > 100 µM (inactive) | GI50 (A549): > 100 µM (inactive) | GI50 (OVCAR-5): 7.73 µM (inactive) | GI50 (HCC 2998): > 100 µM (inactive) | GI50 (OVCAR-8): > 100 µM (inactive) | GI50 (KM12): > 100 µM (inactive) | GI50 (786-0): > 100 µM (inactive) | GI50 (CAKI-1): > 100 µM (inactive) | GI50 (SNB-78): > 100 µM (inactive) | GI50 (HL-60): > 100 µM (inactive) | GI50 (NCI-H522): > 100 µM (inactive) | GI50 (SN12C): > 100 µM (inactive) | GI50 (UACC-257): > 100 µM (inactive) | GI50 (HOP-62): > 100 µM (inactive) | GI50 (HCT-116): > 100 µM (inactive) | GI50 (LXFL 529): > 100 µM (inactive) | GI50 (HT-29): > 100 µM (inactive) | GI50 (Malme-3M): > 100 µM (inactive) | GI50 (SR): > 100 µM (inactive) | GI50 (XF498): > 100 µM (inactive) | GI50 (EKVX): > 100 µM (inactive) | GI50 (HOP-92): > 100 µM (inactive) | GI50 (SF-539): > 100 µM (inactive) | GI50 (DMS-273): > 100 µM (inactive) | GI50 (MOLT-4): > 100 µM (inactive) | GI50 (SK-MEL-28): > 100 µM (inactive) | GI50 (UO-31): > 100 µM (inactive) | GI50 (RXF 393): 78.9 µM (inactive) | GI50 (DMS-114): > 100 µM (inactive) | GI50 (M14): > 100 µM (inactive) | GI50 (M19-MEL): > 100 µM (inactive) | GI50 (ACHN): > 100 µM (inactive) | GI50 (OVCAR-3): > 100 µM (inactive) | GI50 (SNB-19): > 100 µM (inactive) | GI50 (SK-MEL-2): > 100 µM (inactive) | GI50 (RPMI-8226): > 100 µM (inactive) | GI50 (SK-MEL-5): > 100 µM (inactive) | GI50 (U-251): > 100 µM (inactive) | GI50 (CCRF-CEM): > 100 µM (inactive) | GI50 (HCT-15): > 100 µM | GI50 (K562): > 100 µM (inactive) | GI50 (SK-OV-3): > 100 µM (inactive) | GI50 (NCI-H226): > 100 µM (inactive) | GI50 (COLO 205): > 100 µM (inactive) | GI50 (RXF 631): > 100 µM (inactive) | GI50 (UACC-62): > 100 µM (inactive) | GI50 (OVCAR-4): > 100 µM (inactive) | GI50 (A498): > 100 µM (inactive)

[C-]#[N+][C@@H]1C2[C@H](CC[C@@]1(C)O)C(=C)CC[C@@H]2[C@@]1(C)CC[C@H](Cl)C(C)(C)O1 (stereo partly drawn)
GI50 (SF-295): 12.1 µM (inactive) | GI50 (SNB-75): 7.87 µM (inactive) | GI50 (SF-268): 11 µM (inactive) | GI50 (DLD-1): 2.88 µM (inactive) | GI50 (LOX IMVI): 3.95 µM (inactive) | GI50 (SW-620): 5.64 µM (inactive) | GI50 (IGROV-1): 3.49 µM (inactive) | GI50 (NCI-H23): 4.75 µM (inactive) | GI50 (TK-10): 16.2 µM (inactive) | GI50 (NCI-H460): 8.3 µM (inactive) | GI50 (KM-20L2): 6.68 µM (inactive) | GI50 (A549): 8.02 µM (inactive) | GI50 (HCC 2998): 11.1 µM (inactive) | GI50 (OVCAR-8): 3.29 µM (inactive) | GI50 (KM12): 3.53 µM (inactive) | GI50 (786-0): 10.3 µM (inactive) | GI50 (HOP-18): 2.71 µM (inactive) | GI50 (CAKI-1): 4.82 µM (inactive) | GI50 (HL-60): 1.92 µM (inactive) | GI50 (NCI-H522): 4.42 µM (inactive) | GI50 (SN12C): 4.38 µM (inactive) | GI50 (UACC-257): 8.32 µM (inactive) | GI50 (HCT-116): 2.23 µM (inactive) | GI50 (LXFL 529): 3.57 µM (inactive) | GI50 (HT-29): 11.9 µM (inactive) | GI50 (Malme-3M): 5.28 µM (inactive) | GI50 (XF498): 4.71 µM (inactive) | GI50 (EKVX): 7.14 µM (inactive) | GI50 (SF-539): 6.67 µM (inactive) | GI50 (SK-MEL-28): 26.3 µM (inactive) | GI50 (UO-31): 2.06 µM (inactive) | GI50 (RXF 393): 14 µM (inactive) | GI50 (DMS-114): 1.5 µM (inactive) | GI50 (M14): 2.81 µM (inactive) | GI50 (M19-MEL): 4.12 µM (inactive) | GI50 (ACHN): 4.22 µM (inactive) | GI50 (OVCAR-3): 1.31 µM (inactive) | GI50 (SNB-19): 7.1 µM (inactive) | GI50 (SK-MEL-2): 6.3 µM (inactive) | GI50 (RPMI-8226): 2.51 µM (inactive) | GI50 (SK-MEL-5): 3.02 µM (inactive) | GI50 (U-251): 8.87 µM (inactive) | GI50 (CCRF-CEM): 2.77 µM (inactive) | GI50 (HCT-15): 2.55 µM | GI50 (K562): 3.24 µM (inactive) | GI50 (SK-OV-3): 25.4 µM (inactive) | GI50 (NCI-H226): 4.46 µM (inactive) | GI50 (COLO 205): 3.2 µM (inactive) | GI50 (RXF 631): 6.62 µM (inactive) | GI50 (UACC-62): 3.59 µM (inactive) | GI50 (OVCAR-4): 3.24 µM (inactive) | GI50 (A498): 18.5 µM (inactive)
